pEC50, pKi: −log10 of the molar value.
What was measured:
[1] = molecular target: 5-hydroxytryptamine receptor 4 (Rattus norvegicus) (UniProt Q62758); assay: Tested for its efficacy against the 5-hydroxytryptamine 4 receptor located in the rat esophageal tunica muscularis mucosae; assay type: tissue-based; conditions: Muscularis mucosa
[2] = molecular target: 5-hydroxytryptamine receptor 4 (Rattus norvegicus, UniProt Q62758); assay: Tested for its agonist potency against the 5-hydroxytryptamine 4 receptor located in the rat esophageal tunica muscularis mucosae; assay type: functional, tissue-based, Muscularis mucosa
[3] = molecular target: T1, Serotonin 3 (5-HT3) receptor (Rattus norvegicus, UniProt P35563+Q9JJ16); assay: Tested for its binding affinity by measuring its ability to displace [3H]granisetron from 5-hydroxytryptamine 3 receptor in rat cortex
T1 sequence (P35563 whole entry): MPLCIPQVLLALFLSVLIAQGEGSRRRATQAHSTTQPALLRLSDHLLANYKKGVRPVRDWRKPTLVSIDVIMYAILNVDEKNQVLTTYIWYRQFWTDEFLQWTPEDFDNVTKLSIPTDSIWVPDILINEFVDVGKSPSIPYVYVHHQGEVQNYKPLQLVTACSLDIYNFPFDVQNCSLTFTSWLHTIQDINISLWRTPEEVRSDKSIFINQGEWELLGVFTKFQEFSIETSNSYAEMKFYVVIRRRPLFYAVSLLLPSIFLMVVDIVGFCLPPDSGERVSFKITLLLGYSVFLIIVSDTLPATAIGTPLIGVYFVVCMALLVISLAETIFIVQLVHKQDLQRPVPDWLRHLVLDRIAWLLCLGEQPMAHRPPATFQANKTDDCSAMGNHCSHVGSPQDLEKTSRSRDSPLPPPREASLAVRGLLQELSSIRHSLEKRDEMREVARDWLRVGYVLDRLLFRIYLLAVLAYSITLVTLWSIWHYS
T1 sequence (Q9JJ16 whole entry): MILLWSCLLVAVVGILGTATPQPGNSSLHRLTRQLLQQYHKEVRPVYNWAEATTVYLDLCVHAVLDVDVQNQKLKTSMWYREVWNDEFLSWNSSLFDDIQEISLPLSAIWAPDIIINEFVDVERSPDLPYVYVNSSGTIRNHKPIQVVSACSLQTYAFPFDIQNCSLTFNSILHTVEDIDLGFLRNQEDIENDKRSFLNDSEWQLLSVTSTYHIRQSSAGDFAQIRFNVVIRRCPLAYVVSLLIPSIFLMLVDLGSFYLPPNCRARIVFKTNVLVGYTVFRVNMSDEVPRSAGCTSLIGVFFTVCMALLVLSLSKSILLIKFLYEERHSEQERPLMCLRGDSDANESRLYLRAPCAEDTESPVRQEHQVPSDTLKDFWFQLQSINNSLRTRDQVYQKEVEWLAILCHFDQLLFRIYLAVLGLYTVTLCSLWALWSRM

Sequence of 5-hydroxytryptamine receptor 4 (Rattus norvegicus) (Q62758 whole entry): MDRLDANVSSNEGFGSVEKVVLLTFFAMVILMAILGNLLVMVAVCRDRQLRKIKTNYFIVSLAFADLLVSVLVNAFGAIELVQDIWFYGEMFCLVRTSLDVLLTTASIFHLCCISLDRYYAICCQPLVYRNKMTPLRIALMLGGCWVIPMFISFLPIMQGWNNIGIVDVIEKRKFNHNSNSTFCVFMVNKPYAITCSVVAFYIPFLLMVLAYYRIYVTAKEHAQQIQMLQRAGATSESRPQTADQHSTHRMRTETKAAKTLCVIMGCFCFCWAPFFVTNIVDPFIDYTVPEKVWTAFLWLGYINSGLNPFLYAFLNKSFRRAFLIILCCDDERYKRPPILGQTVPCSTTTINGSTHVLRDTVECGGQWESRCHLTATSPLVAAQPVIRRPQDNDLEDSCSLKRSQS
Sequence of 5-hydroxytryptamine receptor 4 (Q62758 whole entry): as above

Structure (SMILES)	Intrinsic activity [1]	pEC50 [2]	pKi [3]
CC(C)n1c(=O)n(C(=O)NC2CC3CCC(C2)N3C)c2ccccc21 (centres undefined)	0.9	7.90	8.80
COc1cc(N)c(Cl)cc1C(=O)NC1CCN2CCCC1C2 (centres undefined) [RENZAPRIDE]	0.8	7.20	8.30
CCCC[N+]12CCCC(C1)C(NC(=O)c1cc(Cl)c(N)cc1OC)CC2 (centres undefined)	0.79	8.02	6.90
CCN(CC)CCNC(=O)c1cc(Cl)c(N)cc1OC [METOCLOPRAMIDE]	0.8		6.80
CCn1c(=O)n(C(=O)NC2CC3CCC(C2)N3C)c2ccccc21 (centres undefined)	0.7	8.00	8.40

From ChEMBL document CHEMBL1152038, “Quaternised renzapride as a potent and selective 5-HT4 receptor agonist” (Bioorg Med Chem Lett, 1993)
